Results published in US4192944A, “Optionally substituted 4-oxo-4H-pyrido[1,2-a]pyrimidine-3-N-(1H-tetrazol-4-yl)carboxamides and their use as antiallergy agents” (priority 1978, dated 1980).
Where two headings read alike, the source gives them in different places.

Assays:
[1] = tested on: reagin-mediated Passive Cutaneous Anaphylaxis (PCA); assay: reagin-mediated rat Passive Cutaneous Anaphylaxis (PCA) screening test; assay type: in vivo
Description: The reagin-mediated rat Passive Cutaneous Anaphylaxis (PCA) screening test used to evaluate the present compounds is generally regarded as one of the best animal models for use in predicting the antiallergy activity of test compounds in man. This screen provides a measure of the effectiveness of test compounds in either inhibiting the release or antagonizing the action of mediators arising from the interaction of reaginic antibodies with specific antigen, mediators which are causative factors in allergic disorders. The details of the test are fully described in U.S. Pat. No. 4,031,093.
The test compounds were solubilized in aqueous sodium bicarbonate and administered intravenously (i.v.) or per os (p.o.) either one or ten minutes, respectively, prior to antigen challenge. Disodium cromoglycate (DSCG), solubilized in saline, was administered i.v. at the time of challenge and p.o 30 minutes prior to challenge.

[2] = tested on: release of mediators, e.g. histamine and SRS-A; conditions: administered to asthmatic patients prior to inhalation of specific antigens; cited from earlier work
[3] = must be administered by inhalation; cited from earlier work
[4] = cited from earlier work
[5] = po, in aqueous sodium bicarbonate, ten minutes prior to antigen challenge, read-out: ID50 p.o. (dose of compound that inhibits 50% of the response)

SMILES: O=C(O)c1cc(=O)c2c(OCC(O)COc3cccc4oc(C(=O)O)cc(=O)c34)cccc2o1 [DSCG, Disodium cromoglycate]
- ED50 ([1]; iv, DSCG, i.v., in saline, at the time of challenge, read-out: ID50 i.v. (dose of compound that inhibits 50% of the response)): 0.6 mg/kg
- ED50 ([1]; po, DSCG, p.o., in saline, 30 minutes prior to challenge, read-out: ID50 p.o. (dose of compound that inhibits 50% of the response)): > 30 mg/kg
- inhibition of release of mediators (histamine, SRS-A) [2]: inhibits the release of mediators
- oral absorption [3]: not orally absorbed
- side effects ([4]; in vivo): without cardiovascular side effects

SMILES: O=C(Nc1nnn[nH]1)c1cnc2ccccn2c1=O [Example 1, 4-Oxo-4H-pyrido[1,2-a]pyrimidine-3-N-(1H-tetrazol-5-yl)carboxamide]
- ED50 [1, 5]: 0.2 mg/kg

SMILES: Cc1cccn2c(=O)c(C(=O)Nc3nnn[nH]3)cnc12 [Example 2, 9-Methyl-4-oxo-4H-pyrido[1,2-a]pyrimidine-3-N-(1H-tetrazol-5-yl)carboxamide]
- ED50 ([1]; iv, in aqueous sodium bicarbonate, one minute prior to antigen challenge, read-out: ID50 i.v. (dose of compound that inhibits 50% of the response)): 0.04 mg/kg
- ED50 [1, 5]: 0.1 mg/kg

SMILES: CCc1cccn2c(=O)c(C(=O)Nc3nnn[nH]3)cnc12 [Example 3, 9-Ethyl-4-oxo-4H-pyrido[1,2-a]pyrimidine-3-N-(1H-tetrazol-5-yl)carboxamide]
- ED50 [1, 5]: 0.1 mg/kg

SMILES: CN1[C@@H]2CC[C@H]1C[C@@H](OC(=O)C(CO)c1ccccc1)C2 (stereo partly shown) [atropine]
- side effects ([4]; treatment of bronchial asthma): cardiac stimulation and gastrointestinal distress

SMILES: CNC[C@H](O)c1ccc(O)c(O)c1 [epinephrine]
- side effects ([4]; treatment of bronchial asthma): cardiac stimulation and gastrointestinal distress

SMILES: CC(C)NCC(O)c1ccc(O)c(O)c1 (stereo not shown) [isoproterenol]
- side effects ([4]; treatment of bronchial asthma): cardiac stimulation and gastrointestinal distress

SMILES: Cn1c(=O)c2[nH]cnc2n(C)c1=O [theophylline]
- side effects ([4]; in vivo): cardiac stimulation and gastrointestinal distress
